In US20230323466A1, “DETERMINING CANCER RESPONSIVENESS TO TREATMENT” (Queensland University of Technology, priority 2020, published 2023):

Tests used:
PC-9 cells = assay type: cell-based; settings: for effect of ectopic CDCA3 expression on sensitivity: PC-9 parental cells; for enhancement of potency by ectopic CDCA3 expression: PC-9 resistant cells
Protocol: (§1) All NSCLC cell lines were obtained from the American Type Culture Collection (ATCC) except for PC-9 cell line which was sourced from the European Collection of Cell Cultures (ECACC). Cells were grown in RPMI-1640-medium containing L-glutamine (Life Technologies) and 10% foetal bovine serum (FBS, Sigma Aldrich). […] All cell lines were cultured at 37° C. in a humidified 5% CO2 incubator and routinely tested for mycoplasma contamination. Transfection of CDCA3-FLAG expression construct was performed using the FuGene HD transfection reagent (Promega Corporation).
(§2) Cells were seeded into a white-walled, glass-bottomed 384-well plate (Nunc) at a density of 1x10^3 cells per well. […] Cell viability was determined using CellTitre-Glo 2.0 (Promega Corporation) according to the manufacturer's instructions. Luminescence was scanned and analysed on the FLUOstar Omega Microplate Reader (BMG Labtech). Data was normalised to untreated controls and dose response curves and drug potency values generated using GraphPad Prism V9 software.
(§3) The present inventors next sought to assess this possibility in in vitro models of acquired TKI resistance. […] Cells not exposed to TKI were also maintained in culture for the same period, hereafter referred to as the parental cells.

CDCA3 = CDCA3 levels after TKI treatment of EGFR mut NSCLC cell lines (FIG. 12); assay type: cell-based; settings: H1975 cells (L858R, T790M)
Protocol: Given CDCA3 levels are responsive to EGFR activation, the present inventors examined CDCA3 levels following second and third generation TKI treatment of three EGFR^mut cell lines; HCC827 and H1650 (exon 19 deletion E746-A750) and H1975 cells (L858R, T790M-resistant to first and second generation TKI).
To collect whole cell lysates, cells were first washed in PBS then lysed in lysis buffer (50 mM HEPES (pH 7.5), 150 mM KCl, 5 mM EDTA, 0.05% IGEPAL CA-630 (v/v), 1× protease inhibitor cocktail (Roche), and 1× phosphatase inhibitor cocktail (Cell Signalling Technology). Total protein was determined by bicinchoninic acid (BCA) protein assay (Sigma Aldrich) following lysate sonication and centrifugation. Samples (total protein 20 20 μg) were denatured in 1× Laemmli Buffer supplemented with 8% β-mercaptoethanol for 5 minutes at 80° C.
The samples were separated on Bolt 4-12% Bis-Tris Plus pre-cast gels (Invitrogen) and transferred onto nitrocellulose membrane (GE Healthcare Life Sciences) using the semi-dry Novex XCell II Blot Module transfer system (Life Technologies). The nitrocellulose membranes were blocked using Odyssey blocking buffer (Li-Cor) before incubation overnight at 4° C. with primary antibody in a 1:1 solution of PBS-T and Odyssey Blocking Buffer. Following primary antibody incubation, membranes were washed with PBS-T and incubated with the appropriate secondary antibodies. […]

HCC827 cells = test system: HCC827 cells
Protocol: as §1, §2, §3

CDCA3 and PLK1 = test: Immunoprecipitation of CDCA3 with PBD of PLK1 under CDK1 inhibition (FIG. 5E); assay type: cell-based; settings: inhibition of CDK1 to block CDCA3 phosphorylation
Source text: FIG. 5. (A) PLK1 schematic listing kinase domain and polo-box domain (PBD). (B) CDCA3 immunoprecipitates with the PBD of PLK1 irrespective of the phospho-binding mutant (H538 and K540 each mutated to alanine residues). (C) CDCA3 is phosphorylated by CDK1-cyclin B1 causing a large molecular weight shift measured by SDS-PAGE. (D) Mutating each of the five CDK1-cyclin B1 phosphorylation sites within CDCA3 enhances binding to PLK1. (E) Inhibition of CDK1 with RO3306 enhances immunoprecipitation of CDCA3 with the PBD domain of PLK1. (F) Unmodified recombinant CDCA3 binds to recombinant Aurora A and PLK1. CDCA3 pre-phosphorylated by CDK1-cyclin B1 binds markedly less to PLK1 than unmodified CDCA3. (G) Recombinant unmodified CDCA3 but not phosphorylated CDCA3 enhances the in vitro activation and phosphorylation of PLK1 by Aurora A.
The present inventors next examined the mechanism regulating the association between CDCA3 and PLK1. The structure of PLK1 consists of an N-terminal kinase domain and a […] polo-box domain (PBD; FIG. 5A). Classically, the PBD binds phosphorylated substrates requiring the residues His538 and Lys540. Using immunoprecipitation analysis of lysates from cells ectopically expressing CDCA3 and the PBD of PLK1, it was identified that CDCA3 associates with the PLK1 PBD independent of residues His538 and Lys540 (FIG. 5B). […]

H1975 cells = test: Cell viability assay (CellTitre-Glo 2.0), H1975; assay type: cell-based; settings: Homo sapiens, NCI-H1975, 72 h
Protocol: as §1, §2
(§4) The present inventors evaluated TCGA datasets and correlated relative CDCA3 expression against available WikiPathways (2) of known measures of TKI resistance. […] Relative CDCA3 protein levels were correlated with the TKI potency values.

H1650 cells = test: Cell viability assay (CellTitre-Glo 2.0), H1650; assay type: cell-based; settings: relative to other cell lines
Protocol: as §1, §2, §4

PLK1 = test: Mitotic index (H3S10ph) in cells expressing wildtype or T210D PLK1 (FIG. 4D); assay type: cell-based; settings: dose dependent
NSCLC cells [1] = test: Cell death with cisplatin and/or BI 2536 in control versus CDCA3 depleted NSCLC cells (FIG. 9B); assay type: cell-based; settings: monotherapy
[2] = test system: control and CDCA3-depleted cells; test: Mitotic entry and recovery from cisplatin-induced G2 checkpoint, flow cytometry of Ser-10 phosphorylated histone H3 (FIG. 2C); assay type: cell-based; settings: after cisplatin-induced G2 checkpoint; both control and CDCA3-depleted cells
Source text: FIG. 2. (A) Undamaged cells depleted of CDCA3 progress to mitosis slower than control cells or cells complemented with siRNA resistant CDCA3. (B) Cisplatin treated cells and depleted of CDCA3 are unable to recover from cell cycle arrest. (C) Cells treated with Cisplatin and then a PLK1 inhibitor are unable to recover from cell cycle arrest.
As this protein is reported to regulate cell proliferation (as confirmed by data in FIG. 7), the present inventors investigated its potential role in cell cycle progression from G2 into mitosis. To examine cell cycle progression, control cells, CDCA3-depleted cells or depleted cells ectopically expressing siRNA resistant CDCA3-FLAG were synchronized at the G1/S cell cycle boundary by a double thymidine block and released for seven hours (˜G2 phase). At this time cells were treated with or without cisplatin for 3.5 h and released into nocodazole containing media to capture cells in mitosis. Mitotic cells were determined by flow cytometry analysis of cells stained for Ser-10 phosphorylated histone H3. In undamaged cells, CDCA3 depletion slowed the progression of cells from G2 into mitosis (FIG. 2A). However, in cisplatin treated cells, CDCA3 depletion abolished mitotic progression with an inability to recover from G2 cell cycle arrest (FIG. 2B). […]

NSCLC cells [3] = test: Cisplatin IC50 in CDCA3-depleted versus control NSCLC cells (FIG. 8); assay type: cell-based
Source text: FIG. 8. CDCA3-depletion reduces cisplatin IC50 values ˜2-4 fold versus control NSCLC cells but not non-tumorigenic lung epithelial HBEC cells, indicating increased sensitivity to cisplatin in NSCLC in vitro.
To investigate the diagnostic potential for CDCA3, the present inventors stratified the UT Lung SPORE cohort data based on CDCA3 expression (CDCA3low=below median, CDCA3high=above median). In this trial, patients undergoing curative resection were either observed only (OBS) or received adjunct chemotherapy (ACT).

## C=CC(=O)Nc1cc(Nc2nccc(-c3cn(C)c4ccccc34)n2)c(OC)cc1N(C)CCN(C)C [osimertinib]
PC-9 cells
  effect of ectopic CDCA3 expression on sensitivity: did not impact
  enhancement of potency by ectopic CDCA3 expression: 54 fold
PC-9 cells; erlotinib resistant PC-9 versus parental PC-9
  increase in IC50 values versus parental: ~1,470 fold
CDCA3
  CDCA3 levels: reduced
HCC827 cells
  effect of ectopic CDCA3 expression on sensitivity: did not impact
  enhancement of potency by ectopic CDCA3 expression: ~121 fold
  increase in IC50 values versus parental: ~385 fold

## O=C1NC(=NCc2cccs2)S/C1=C\c1ccc2ncccc2c1 [R03306]
CDCA3 and PLK1
  association between CDCA3 and PLK1: increase

## C#Cc1cccc(Nc2ncnc3cc(OCCOC)c(OCCOC)cc23)c1 [erlotinib]
H1975 cells
  IC50: 66.6 µM
PC-9 cells
  effect of ectopic CDCA3 expression on sensitivity: did not impact
  enhancement of potency by ectopic CDCA3 expression: ~57 fold
H1650 cells
  sensitivity: insensitive
HCC827 cells
  effect of ectopic CDCA3 expression on sensitivity: did not impact

## CC[C@@H]1C(=O)N(C)c2cnc(Nc3ccc(C(=O)NC4CCN(C)CC4)cc3OC)nc2N1C1CCCC1 [BI 2536]
PLK1
  mitotic entry (mitotic index): reduced
NSCLC cells [1]; CDCA3 depleted cells
  cell death: ~13%
NSCLC cells [1]; control cells
  cell death: ~30%
[2]
  mitotic entry: blocked mitotic entry

## N.N.[Cl][Pt][Cl] [cisplatin]
NSCLC cells [3]
  reduction of cisplatin IC50 values by CDCA3-depletion: 2-4 fold
